Consider three compounds from patent publication US12415811B2, “1,2,3',5'-tetrahydro-2'h-spiro[indole-3,1'-pyrrolo[3,4-C]pyrrole]-2,3'-dione compounds as therapeutic agents activating TP53” (ADAMED PHARMA, S.A., priority 2018, dated 2025).

One series relates to SJSA-1 xenograft. As to the kind of experiment: In vivo efficacy in the SJSA-1 xenograft model in mice. The note with it: Mus musculus, po, 12.5 mg/kg p.o., q1d, SJSA-1 xenograft in Crl:CD-1-Foxn1nu mice, mean. How it is done: The experiment was conducted on female mice from the Crl:CD-1-Foxn1nu strain. Mice were inoculated subcutaneously in the right flank with cancer cell line SJSA-1 in the amount of 3×10^6 cells suspended in 100 μl HBSS: Matrigel matrix in a 3:1 ratio per mouse. On the 17th day after inoculation mice were divided into groups, so that in each group the mean tumor volume was similar and averaged around 200 mm^3. Experiment groups were selected, each consisting of 8 mice: Control NaCl 0.9% and compounds. Compounds 1-11 were dissolved in 56.60% PEG 400, 9.43% Cremophor RH40, 9.43% ETOH, 18.87% Labrafil M1944CS, 5.67% DMSO. For Compound 107 from WO2015/189799, group of 7 mice was used, and it was dissolved in 15% PEG400, 10% Cremophor EL, 75% H2O.
[…] During the course of experiment mice were weighed before each administration, —twice/thrice a week. Animal welfare was monitored daily. No significant difference in body weight or welfare was observed between experiment groups during and at the end of study.
Change in tumor volume was monitored twice/thrice a week starting from the first day of administration. Tumor volume was calculated based on its length and width measured with an electronic calipers: V[mm^3]=d^2×D/2
The tumor volume in the groups was measured up to 101 days after inoculation (72 days after last administration). Results of the experiment were expressed as mean values of tumor growth inhibition (TGI) ±SEM (Table 4). Tumor growth inhibition was calculated using the following formula TGI [%]=[100−[…]]
where C— mean tumor size in control group, T—mean tumor size in treated group. All calculations and graphs were performed using GraphPad Prism 5 software.

In series [1] the test system is SJSA-1 osteosarcoma cell line. As to the kind of experiment: Cell viability MTT assay. The series is classed as cell-based. The note with it: Homo sapiens, 72 h incubation, average of 2-5 experiments. How it is done:
The effect of the invented p53-Mdm2 inhibitors on cell viability has been assessed using MTT assay. It is a colorimetric assay that measures conversion of tetrazolium ring of the soluble yellow dye (MTT) into insoluble purple formazan. This process is catalyzed solely in mitochondrial dehydrogenases of living cells.
Cells were seeded on 96-well plates and then treated with successive dilutions of tested compounds. After 72 h incubation, MTT was added to the final concentration 0.5 mg/ml. The cells were further incubated for the next 4 h. Then the solution was drained and the remaining formazan crystals were dissolved in 100 μl DMSO. […] All the MTT experiments were independently repeated 2-5 times. Dose-dependent binding curves and IC50 values were calculated using GraphPad Prism 5. The presented IC50 values represent the average value from all the performed experiments (Table 3).
Background: Formazan colour is commonly taken as a measure of viable cells.

Series [2] can be described thus: In vitro intrinsic clearance in human microsomes. Format: in vitro ADME. The conditions noted are these: pH 7.4; human microsomes 0.5 mg/ml, 1 μM compound, 37° C., up to 1 hour; read-out: human MS Clint. As for the experimental part: (§1) Metabolic stability of the compounds of the invention has been assessed by measurement of the in vitro intrinsic clearance in murine and human microsomes.
(§2) 10 mM stock solutions of markers and test compounds were prepared in DMSO. These were diluted 100-fold in 91:9 MeCN:DMSO to obtain a 100 μM assay stock. 10 mM NADPH was made up in 0.1M phosphate buffer (pH7.4). Microsomes were thawed in a waterbath at 37° C., and diluted to give a final assay concentration of 0.5 mg/ml.
(§3) 100 μM assay stocks were added to give a final concentration of 1 μM to incubation tubes containing buffer and NADPH (final assay concentration is 1 mM). Incubation tubes and microsomes were pre-warmed at 37° C. for 3 minutes. The microsomes were then added to the incubation tubes which were kept at 37° C. and shaken using the orbital shaker for the duration of the assay. Samples were taken at 6 pre-determined time points up to 1 hour and transferred to the prepared quench tubes containing an appropriate solvent with internal standard.
(§4) Quenched samples are mixed thoroughly and protein precipitated at −20° C. for a minimum of 12 hours. Samples were then centrifuged at 4° C. Supernatants were transferred to a fresh 96 well plate, compatible with the auto-sampler. The plate was sealed with a pre-slit silicone mat and analyzed by LC-MS/MS.

In a further series the target is p53-Mdm2 interaction (Homo sapiens (Human), UniProt Q00987). As to the kind of experiment: Fluorescence polarization (FP) binding assay, inhibition of p53-Mdm2 interaction. The conditions noted are these: 75 nM Mdm2 (amino acids 1-111), 10 nM FAM-labelled p53 peptide; IC50 transformed to Ki using Kenakin equation. How it is done:
The inhibition of p53-Mdm2 interaction was measured using a fluorescence polarization (FP) binding assay. FP measures the rotational movement of molecules in a homogenous suspension. For this assay, N-terminal domain of Mdm2 protein (amino acids 1-111) is combined with a fluorescein-labeled (FAM) peptide derived from p53 trans-activation domain (Sequence: 5-FAM-TSFAEYWNLLSP). Upon excitation of the fluorescent ligand with linearly polarized light the peptide emits perpendicularly polarized light. If the peptide is bound by Mdm2, rotation will slow down and the perpendicular component will proportionally decrease. In opposition disruption of the peptide-Mdm2 complex due to binding of an inhibitor to the p53 binding site of Mdm2 results in releasing of peptide and decreasing of emitted light polarization.
Fluorescence polarization experiments were read on Biotek Cytation 5 reader with the 470 nm excitation and 520 nm emission filters for fluorescein. The fluorescence polarization was measured in black 96-well plates (Corning, CLS3991) in room temperature. Purity of Mdm2 was controlled at >95%. Reaction buffer was optimized by adding 5 mM DTT and 0.1% zwitterionic detergent CHAPS to reduce effect of nonspecific interactions.
The test was performed by combining successive dilution of compounds diluted in dimethyl sulfoxide (DMSO, 5% final concentration) with 75 nM Mdm2 in reaction buffer (PBS, 0.1% CHAPS, 5 mM DTT (dithiothreitol)). After 15 minutes of incubation in room temperature 10 nM FAM-labelled peptide was added. Final reading was performed after 90 minutes of incubation. Dose-dependent binding curves and IC50 values were calculated using GraphPad Prism5 and next transformed to Ki values using Kenakin equation (Table 2).

Series [3] in a line: In vitro intrinsic clearance in murine microsomes. The series is classed as in vitro ADME. The note with it: mouse, pH 7.4; murine microsomes 0.5 mg/ml, 1 μM compound, 37° C., up to 1 hour; read-out: murine MS Clint. How it is done: as §1, §2, §3, §4
Where [4] appears, read: after 7 doses, read-out: TGI P.O. 12.5 mg/kg (7 doses) [%].
The mark [5] stands for this setting: after 12 doses, read-out: TGI P.O. 12.5 mg/kg (12 doses) [%].

Read-outs that look alike come from different tables or passages of the source.

Chain of p53-Mdm2 interaction (Q00987 1-111): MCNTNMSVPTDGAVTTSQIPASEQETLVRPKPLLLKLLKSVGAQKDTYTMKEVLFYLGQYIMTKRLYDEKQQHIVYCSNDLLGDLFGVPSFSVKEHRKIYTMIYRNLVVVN

The term IC50 denotes the concentration that inhibits the measured activity by half. For orientation: Ki means a dissociation constant, usually derived from enzyme kinetics or from competition with a known ligand. A high value points to weaker binding. With `COc1cc(N(C)C)ncc1-n1cc2c(c1C(C)C)[C@@]1(C(=O)Nc3cc(Cl)ccc31)N(c1cc(Cl)ccc1F)C2=O` [Compound 6, (3S)-6-chloro-2′-(5-chloro-2-fluorophenyl)-5′-[6-(dimethylamino)-4-methoxypyridin-3-yl]-6′-(propan-2-yl)-1,2,3′,5′-tetrahydro-2′H-spiro[indole-3,1′-pyrrolo[3,4-c]pyrrole]-2,3′-dione], the inhibition in vivo at 12.5 mg/kg with SJSA-1 xenograft (setting [4]) was 92%; in the series on SJSA-1 xenograft (setting [5]), 99.1%. The compound further came in with an IC50 in series [1] of 0.03 µM. The microsomal CLint at 1 μM in series [2] came to 19.8 µL/min/mg; in series [3], 33.6 µL/min/mg. Besides, the affinity on p53-Mdm2 interaction corresponds to a Ki of 1.7 nM.
As to `COc1nc(OC)c(-n2cc3c(c2C(C)C)[C@@]2(C(=O)Nc4cc(Cl)ccc42)N(c2cc(Cl)ccc2C)C3=O)c(OC)n1` [Compound 3, (3S)-6-chloro-2′-(5-chloro-2-methylphenyl)-6′-(propan-2-yl)-5′-(trimethoxypyrimidin-5-yl)-1,2,3′,5′-tetrahydro-2′H-spiro[indole-3,1′-pyrrolo[3,4-c]pyrrole]-2,3′-dione], the inhibition in vivo at 12.5 mg/kg in the series on SJSA-1 xenograft (setting [4]) came to 94.2%; in the series on SJSA-1 xenograft (setting [5]), 99.6%. Also, 0.07 µM corresponded to half-maximal inhibition in series [1] (IC50). The microsomal CLint at 1 μM in series [2] and in series [3] was less than 3 µL/min/mg each time. Also, the affinity at p53-Mdm2 interaction, expressed as Ki, was 2.4 nM.
For `COc1ncc(-n2cc3c(c2C(C)C)[C@@]2(C(=O)Nc4cc(Cl)ccc42)N(c2cc(Cl)c(F)cc2F)C3=O)c(OC)n1` [Compound 10, (3S)-6-chloro-2′-(5-chloro-2,4-difluorophenyl)-5′-(2,4-dimethoxypyrimidin-5-yl)-6′-(propan-2-yl)-1,2,3′,5′-tetrahydro-2′H-spiro[indole-3,1′-pyrrolo[3,4-c]pyrrole]-2,3′-dione], the inhibition in vivo at 12.5 mg/kg in the series on SJSA-1 xenograft (setting [4]) was 93.5%; with SJSA-1 xenograft (setting [5]), 98.8%. Moreover, in series [1], half-maximal inhibition (IC50) was put at 0.4 µM. The microsomal CLint at 1 μM in series [2] is less than 3.2 µL/min/mg; in series [3], less than 3 µL/min/mg. For the same compound, the Ki on p53-Mdm2 interaction was 2 nM.
